# Results as given in article PMC12281424, “A Rac-specific competitive inhibitor of guanine nucleotide binding reduces metastasis in triple-negative breast cancer” (Cell Reports Medicine, 2025).
# Experiments:
# Type in all cases: biochemical
# [1] = molecular target: PI3K (p110d/p85a)(m) (Mus musculus, UniProt O35904); test: Kinase Profiler
# Experimental: (§4) Blood cell counts, kinase profiler, safety screen, bacterial cytotoxicity, Ames, micronucleus assays were performed by the company Eurofins (France). The kinase profiler was performed by the company Eurofins (Discovery, Panlab and Cerep).
# [2] = molecular target: cSRC(h) (Homo sapiens, UniProt P12931); test: Kinase Profiler
# Experimental: (§5) The kinase profiler was performed by the company Eurofins (Discovery, Panlab and Cerep).
# [3] = molecular target: Tie2(R849W)(h) (Homo sapiens, UniProt Q02763, R849W); test: Kinase Profiler
# Experimental: as §4
# [4] = molecular target: IR(h) (Homo sapiens, UniProt P06213); test: Kinase Profiler
# Experimental: as §4
# [5] = molecular target: CaMKIIδ(h) (Homo sapiens, UniProt Q13557); test: Kinase Profiler
# Experimental: as §5
# [6] = molecular target: T1, RHOG (Homo sapiens, UniProt P84095); test: GEF-stimulated nucleotide exchange; design: dose or concentration left out as unconfirmed
# T1 construct: Full-length RAC2, RHOG, RHOA and CDC42 were purified as previously described; made in house
# From the text: (§1) Figure 4 A41 selectively impairs RAC protein activation (A) Representative surface plasmon resonance (SPR) sensograms of binding of immobilized RHOA or CDC42 with indicated increasing concentrations of A41 (N > 3). (B) Effect of A41 on GEF-stimulated RAC2, RHOG, RHOA, and CDC42 nucleotide exchange. […] Kobs is expressed as mean ± SEM. ∗p < 0.001 vs. control. (C) Effect of A41 on RAC1 G30S activation. […] The GEF TRIO was used to induce nucleotide exchange (N = 3). Data are expressed as mean ± SEM. (D) Immunoblot analysis and associated quantification of RAC-GTP level and total RAC expression in NIH-3T3 fibroblasts expressing RAC wild-type (RAC1 WT) or RAC1 oncomutants (RAC1 P29S and RAC1b) in the absence (Ctrl) and presence of A41 (10 μM). RAC activation was measured as the ratio of RAC-GTP to total RAC and expressed relative to Ctrl condition. Data are presented as mean ± SEM. ∗∗∗p < 0.001 vs. controls.
# (§2) Full-length RAC1 carrying a 6xHis tag in C-terminus was purified as previously described.[64] […] Specific exchange activity toward RHOA determined by fluorescence kinetics is 0.04 s^−1M^−1.
# (§3) Nucleotide exchange kinetics were measured by recording the increase in fluorescence following the association of mant-GTP on GDP-bound RHO protein or the decay in fluorescence following the dissociation of mant-GDP pre-loaded onto the RHO protein (λEx = 360 nm, λEm = 440 nm) as previously described.[39] […]
# [7] = molecular target: T2, RAC2 (Homo sapiens, UniProt P15153); test: GEF-stimulated nucleotide exchange; design: dose or concentration left out as unconfirmed
# T2 construct: Full-length RAC2, RHOG, RHOA and CDC42 were purified as previously described; made in house
# From the text: as §1, §2, §3
# [8] = molecular target: PDGFRα(V561D)(h) (Homo sapiens, UniProt P16234, V561D); test: Kinase Profiler
# Experimental: as §5
# [9] = molecular target: BMPR2(h) (Homo sapiens, UniProt Q13873); test: Kinase Profiler
# Experimental: as §4
# [10] = molecular target: CaMKK2(h) (Homo sapiens, UniProt Q96RR4); test: Kinase Profiler
# Experimental: as §5
# [11] = molecular target: Fms(Y969C)(h) (Homo sapiens, UniProt P07333, Y969C); test: Kinase Profiler
# Experimental: as §5
# [12] = molecular target: LATS2(h) (Homo sapiens, UniProt Q9NRM7); test: Kinase Profiler
# Experimental: as §5
# [13] = molecular target: PIP5K1g(h) (Homo sapiens, UniProt O60331); test: Kinase Profiler
# Experimental: as §4
# [14] = molecular target: PAK1(h) (Homo sapiens, UniProt Q13153); test: Kinase Profiler
# Experimental: as §4
# [15] = molecular target: CLIK1(h) (Homo sapiens, UniProt Q8TDR2); test: Kinase Profiler
# Sequence of CLIK1(h) (Q8TDR2 whole entry): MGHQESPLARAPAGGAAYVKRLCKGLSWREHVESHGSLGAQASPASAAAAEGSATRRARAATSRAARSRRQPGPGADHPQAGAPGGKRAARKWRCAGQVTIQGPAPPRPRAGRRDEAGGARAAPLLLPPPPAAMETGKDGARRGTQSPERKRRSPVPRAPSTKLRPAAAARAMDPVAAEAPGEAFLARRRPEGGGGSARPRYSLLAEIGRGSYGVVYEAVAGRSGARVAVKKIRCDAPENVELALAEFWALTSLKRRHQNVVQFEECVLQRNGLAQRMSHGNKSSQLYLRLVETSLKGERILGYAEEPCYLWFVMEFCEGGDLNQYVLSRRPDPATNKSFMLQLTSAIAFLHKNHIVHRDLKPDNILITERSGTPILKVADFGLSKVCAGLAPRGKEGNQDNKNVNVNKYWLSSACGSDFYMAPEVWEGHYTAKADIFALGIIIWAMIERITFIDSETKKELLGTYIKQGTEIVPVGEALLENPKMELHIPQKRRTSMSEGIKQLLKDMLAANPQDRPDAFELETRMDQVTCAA
# Experimental: as §5
# Sequence of cSRC(h) (P12931 whole entry): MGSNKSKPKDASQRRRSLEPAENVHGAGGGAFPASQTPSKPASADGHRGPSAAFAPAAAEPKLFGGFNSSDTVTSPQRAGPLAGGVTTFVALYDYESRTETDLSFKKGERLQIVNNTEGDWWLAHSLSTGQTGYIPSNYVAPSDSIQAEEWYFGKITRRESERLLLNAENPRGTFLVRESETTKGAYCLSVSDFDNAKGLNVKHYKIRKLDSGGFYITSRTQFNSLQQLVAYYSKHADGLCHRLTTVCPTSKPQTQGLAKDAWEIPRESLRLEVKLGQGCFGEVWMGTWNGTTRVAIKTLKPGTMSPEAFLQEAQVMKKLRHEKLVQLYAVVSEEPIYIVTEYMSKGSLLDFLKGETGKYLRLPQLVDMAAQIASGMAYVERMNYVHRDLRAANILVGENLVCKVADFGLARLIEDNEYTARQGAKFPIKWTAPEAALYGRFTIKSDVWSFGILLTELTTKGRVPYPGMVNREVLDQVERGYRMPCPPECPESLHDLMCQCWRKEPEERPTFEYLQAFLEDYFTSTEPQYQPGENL
# Sequence of CaMKK2(h) (Q96RR4 whole entry): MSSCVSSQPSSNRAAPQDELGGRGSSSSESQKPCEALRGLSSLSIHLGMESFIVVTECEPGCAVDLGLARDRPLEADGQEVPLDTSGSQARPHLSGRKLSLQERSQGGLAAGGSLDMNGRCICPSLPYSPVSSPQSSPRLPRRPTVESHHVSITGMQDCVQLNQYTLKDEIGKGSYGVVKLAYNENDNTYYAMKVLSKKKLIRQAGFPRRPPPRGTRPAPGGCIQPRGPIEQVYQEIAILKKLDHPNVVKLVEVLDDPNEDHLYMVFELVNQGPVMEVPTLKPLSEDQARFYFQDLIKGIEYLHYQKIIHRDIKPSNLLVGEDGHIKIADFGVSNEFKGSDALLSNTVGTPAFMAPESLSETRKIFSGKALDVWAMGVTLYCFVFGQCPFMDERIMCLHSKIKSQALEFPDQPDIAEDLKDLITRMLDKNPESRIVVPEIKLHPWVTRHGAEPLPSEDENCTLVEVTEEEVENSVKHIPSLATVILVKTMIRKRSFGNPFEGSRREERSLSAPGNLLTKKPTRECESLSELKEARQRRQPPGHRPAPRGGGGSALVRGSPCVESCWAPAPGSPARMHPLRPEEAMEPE
# T1 sequence (P84095 whole entry): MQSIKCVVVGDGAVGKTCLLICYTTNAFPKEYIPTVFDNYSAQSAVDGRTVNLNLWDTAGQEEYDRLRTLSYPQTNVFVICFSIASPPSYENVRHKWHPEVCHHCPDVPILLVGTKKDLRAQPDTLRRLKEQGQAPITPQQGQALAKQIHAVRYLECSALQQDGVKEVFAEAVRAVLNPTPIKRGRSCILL
# Sequence of BMPR2(h) (Q13873 27-1038): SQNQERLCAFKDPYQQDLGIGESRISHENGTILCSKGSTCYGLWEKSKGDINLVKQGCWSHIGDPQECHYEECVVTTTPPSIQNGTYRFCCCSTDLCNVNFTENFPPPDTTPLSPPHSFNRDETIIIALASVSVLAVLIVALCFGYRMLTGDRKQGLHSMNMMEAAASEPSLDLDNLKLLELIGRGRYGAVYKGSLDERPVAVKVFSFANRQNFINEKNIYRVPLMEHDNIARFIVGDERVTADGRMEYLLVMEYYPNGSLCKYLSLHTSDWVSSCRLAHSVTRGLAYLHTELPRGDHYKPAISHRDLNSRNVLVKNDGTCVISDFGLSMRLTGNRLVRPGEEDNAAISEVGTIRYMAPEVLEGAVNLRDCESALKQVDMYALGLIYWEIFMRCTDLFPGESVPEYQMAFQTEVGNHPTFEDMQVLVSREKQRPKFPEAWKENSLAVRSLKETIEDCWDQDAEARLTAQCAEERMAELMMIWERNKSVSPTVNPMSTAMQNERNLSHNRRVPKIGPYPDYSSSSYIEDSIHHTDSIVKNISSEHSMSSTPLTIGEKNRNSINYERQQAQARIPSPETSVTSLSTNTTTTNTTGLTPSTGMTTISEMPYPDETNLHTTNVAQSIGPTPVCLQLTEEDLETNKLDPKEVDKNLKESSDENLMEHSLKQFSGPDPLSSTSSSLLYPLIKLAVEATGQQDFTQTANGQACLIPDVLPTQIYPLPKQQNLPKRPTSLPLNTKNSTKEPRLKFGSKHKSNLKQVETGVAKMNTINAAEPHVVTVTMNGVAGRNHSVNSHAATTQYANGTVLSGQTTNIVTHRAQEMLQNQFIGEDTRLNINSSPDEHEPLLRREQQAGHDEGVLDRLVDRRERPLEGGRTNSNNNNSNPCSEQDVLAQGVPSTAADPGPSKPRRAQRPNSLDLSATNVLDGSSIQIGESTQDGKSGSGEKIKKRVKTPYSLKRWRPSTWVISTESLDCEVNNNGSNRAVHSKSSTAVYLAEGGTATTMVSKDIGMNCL
# Sequence of PAK1(h) (Q13153 whole entry): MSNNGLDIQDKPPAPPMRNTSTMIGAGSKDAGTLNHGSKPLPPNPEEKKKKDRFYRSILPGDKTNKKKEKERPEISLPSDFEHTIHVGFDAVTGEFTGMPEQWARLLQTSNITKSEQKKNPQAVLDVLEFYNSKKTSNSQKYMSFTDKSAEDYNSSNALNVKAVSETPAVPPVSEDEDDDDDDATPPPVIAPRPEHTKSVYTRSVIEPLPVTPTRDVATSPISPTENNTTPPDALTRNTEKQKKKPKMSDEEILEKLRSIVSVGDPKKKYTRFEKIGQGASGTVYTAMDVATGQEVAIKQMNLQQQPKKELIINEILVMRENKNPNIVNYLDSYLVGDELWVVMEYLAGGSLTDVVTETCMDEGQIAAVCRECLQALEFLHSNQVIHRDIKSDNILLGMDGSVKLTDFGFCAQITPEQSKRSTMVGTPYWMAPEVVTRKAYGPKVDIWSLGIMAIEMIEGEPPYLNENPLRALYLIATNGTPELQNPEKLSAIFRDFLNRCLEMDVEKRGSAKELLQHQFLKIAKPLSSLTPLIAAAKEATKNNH
# Sequence of LATS2(h) (Q9NRM7 whole entry): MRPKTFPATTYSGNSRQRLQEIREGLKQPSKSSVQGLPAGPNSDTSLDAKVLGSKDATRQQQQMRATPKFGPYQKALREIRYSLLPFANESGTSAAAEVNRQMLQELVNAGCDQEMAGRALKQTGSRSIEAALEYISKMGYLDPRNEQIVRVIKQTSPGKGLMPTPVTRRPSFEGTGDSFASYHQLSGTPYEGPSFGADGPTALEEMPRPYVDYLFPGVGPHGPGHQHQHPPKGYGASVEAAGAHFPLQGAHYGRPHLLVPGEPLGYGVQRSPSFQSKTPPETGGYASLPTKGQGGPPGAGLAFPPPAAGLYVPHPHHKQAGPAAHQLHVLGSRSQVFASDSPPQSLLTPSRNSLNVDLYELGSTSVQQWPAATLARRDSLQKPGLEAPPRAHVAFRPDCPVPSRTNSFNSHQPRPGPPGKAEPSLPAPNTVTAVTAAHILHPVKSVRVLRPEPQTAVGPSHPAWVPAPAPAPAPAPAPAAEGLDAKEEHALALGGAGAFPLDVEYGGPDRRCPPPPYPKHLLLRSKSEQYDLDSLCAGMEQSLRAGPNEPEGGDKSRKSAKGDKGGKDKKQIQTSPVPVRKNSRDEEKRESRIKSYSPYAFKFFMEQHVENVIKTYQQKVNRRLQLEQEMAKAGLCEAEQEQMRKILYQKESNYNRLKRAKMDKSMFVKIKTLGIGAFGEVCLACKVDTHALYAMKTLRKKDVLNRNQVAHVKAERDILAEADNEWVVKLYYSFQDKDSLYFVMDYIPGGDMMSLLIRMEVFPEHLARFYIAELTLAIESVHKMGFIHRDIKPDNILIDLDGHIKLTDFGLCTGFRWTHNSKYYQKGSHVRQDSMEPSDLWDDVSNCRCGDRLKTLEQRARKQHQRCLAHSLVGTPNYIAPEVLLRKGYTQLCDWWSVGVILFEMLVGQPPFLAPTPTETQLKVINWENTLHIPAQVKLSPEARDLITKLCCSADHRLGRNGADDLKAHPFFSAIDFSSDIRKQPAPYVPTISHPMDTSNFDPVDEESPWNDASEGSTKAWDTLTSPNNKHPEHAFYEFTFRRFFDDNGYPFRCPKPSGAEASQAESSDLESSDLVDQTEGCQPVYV
# Sequence of CaMKIIδ(h) (Q13557 whole entry): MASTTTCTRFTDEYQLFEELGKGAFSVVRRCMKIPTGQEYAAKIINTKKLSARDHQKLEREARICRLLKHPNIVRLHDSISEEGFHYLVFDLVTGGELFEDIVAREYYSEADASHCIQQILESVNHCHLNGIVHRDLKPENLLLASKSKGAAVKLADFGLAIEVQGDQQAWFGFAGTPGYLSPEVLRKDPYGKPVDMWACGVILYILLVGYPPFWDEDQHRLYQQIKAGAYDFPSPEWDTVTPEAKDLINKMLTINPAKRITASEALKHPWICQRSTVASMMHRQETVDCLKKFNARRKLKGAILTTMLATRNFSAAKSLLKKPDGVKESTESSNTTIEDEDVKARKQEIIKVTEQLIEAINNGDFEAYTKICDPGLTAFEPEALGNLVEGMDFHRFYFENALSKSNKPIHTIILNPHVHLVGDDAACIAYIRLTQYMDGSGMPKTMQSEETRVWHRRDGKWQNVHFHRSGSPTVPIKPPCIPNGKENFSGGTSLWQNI
compound,measurement,setting,value
COc1ccc(OC)c(NS(=O)(=O)c2ccc(NC(=O)CCSc3ccc(C)cc3)cc2)c1 [Compound A41],Activity(%),[1],100%
same,Activity(%),[2],111%
same,Activity(%),[3],101%
same,Activity(%),[4],137%
same,Activity(%),[5],92%
same,TRIO-induced RHOG activation,[6],no effect
same,TRIO-induced activation of RAC2,[7],reduced
same,Activity(%),[8],119%
same,Activity(%),[9],100%
same,Activity(%),[10],110%
same,Activity(%),[11],107%
same,Activity(%),[12],110%
same,Activity(%),[13],104%
same,Activity(%),[14],115%
same,Activity(%),[15],112%
